Among the test systems are MALME-3M melanoma; SN12C renal; COLO 205 colon; SF-539 CNS; OVCAR-3 ovarian; UACC-62 melanoma; NCI-H23 lung; A498 renal; UACC-257 melanoma.
Holding throughout (assay): NCI-60 cell line screen, 48 h

Several values for one entry are separate records, joined by “and”; a condition that tells them apart may be missing. Equal values may be shown once.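 Test compounds were applied to cells in 96-well plates for 48 hours at 5 doses. GI50 = concentration required for 50% inhibition of growth. The concentration for full growth arrest is given as TGI.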

`O=C(O)CSc1n[nH]c(/C=C/c2ccccc2)n1`: the TGI in the experiment with MALME-3M melanoma, in the experiment with SN12C renal, in the experiment on COLO 205 colon, in the experiment with SF-539 CNS, in the experiment on OVCAR-3 ovarian and with UACC-62 melanoma was more than 100 µM throughout. Besides, the TGI with NCI-H23 lung, with A498 renal and in the experiment on UACC-257 melanoma was more than 100 µM in each case.
With `OCC(O)CC[CH2][Sn]([c]1ccccc1)([c]1ccccc1)[c]1ccccc1` (stereo unspecified), the GI50 in the experiment on SN12C renal is 15.1 µM; in the experiment on COLO 205 colon, 19.5 µM; in the experiment on SF-539 CNS, 17.2 µM; with OVCAR-3 ovarian it was 16.2 µM; in the experiment on UACC-62 melanoma, 16.1 µM; in the experiment on NCI-H23 lung, 15.1 µM. In the experiment on UACC-257 melanoma, the GI50 was 18.4 µM. For the same molecule, the TGI in the experiment on SN12C renal was 30.8 µM; with COLO 205 colon it was 35.3 µM; in the experiment on SF-539 CNS it was 32.5 µM; with OVCAR-3 ovarian it was 29.8 µM; in the experiment on UACC-62 melanoma, 29.8 µM; in the experiment on NCI-H23 lung, 29.8 µM. This molecule also showed a TGI in the experiment with UACC-257 melanoma of 35.8 µM.
As for `COC(=O)N1[C@H]2Cc3c(OC)c(C)c(OC)c(OC)c3[C@@H]1/C(=C\c1cc(OC)c(OC)c(C)c1OC)N(Cc1ccccc1)C2=O`, the TGI in the experiment with MALME-3M melanoma was 88.7 µM; with SN12C renal, more than 100 µM; in the experiment on COLO 205 colon, 32 µM; with SF-539 CNS it was more than 100 µM; with OVCAR-3 ovarian it was more than 100 µM; in the experiment on UACC-62 melanoma it was more than 100 µM. Besides, the TGI in the experiment on NCI-H23 lung, in the experiment with A498 renal and in the experiment with UACC-257 melanoma was more than 100 µM throughout.
Turning to `COc1cc(OC)cc(N2CCC(c3c(N)nc(N)nc3Cl)CC2)c1`, the TGI with MALME-3M melanoma, in the experiment on SN12C renal, in the experiment with COLO 205 colon, in the experiment with OVCAR-3 ovarian, in the experiment with UACC-62 melanoma and with NCI-H23 lung was more than 100 µM throughout. In the experiment on UACC-257 melanoma, this molecule registered a TGI of more than 100 µM.
`CCCCOC1CC2(c3ccc(OC)cc3)C(=O)c3ccccc3N2O1` (stereo unspecified): the TGI in the experiment on MALME-3M melanoma was 58.3 µM; in the experiment on SN12C renal, more than 10 µM; in the experiment with COLO 205 colon, 54.1 µM; in the experiment with SF-539 CNS, more than 100 µM; with OVCAR-3 ovarian, more than 100 µM; in the experiment on UACC-62 melanoma it was more than 10 µM. For the same molecule, the TGI in the experiment on A498 renal was more than 10 µM; in the experiment with UACC-257 melanoma it was 70.1 µM.
For `CC(NC(=O)c1ccccc1)C(=O)N(Cc1ccccc1)Cc1ccccc1` (stereo unspecified), the TGI with MALME-3M melanoma is 53.7 µM; with SN12C renal, more than 100 µM; with COLO 205 colon, 40.8 µM; with SF-539 CNS it was more than 100 µM; with UACC-62 melanoma, 30.7 µM; in the experiment on NCI-H23 lung it was 60.4 µM. Further, the TGI with A498 renal was 89.9 µM; with UACC-257 melanoma it was more than 100 µM.
On to `O=c1cc2n(c(=O)[nH]1)C1OC(C(O)C1O)[C@@H]2CCO` (stereo partly specified), for which the TGI with MALME-3M melanoma, in the experiment on SN12C renal, with SF-539 CNS, in the experiment with UACC-62 melanoma, in the experiment with NCI-H23 lung and in the experiment on A498 renal was more than 100 µM throughout. The molecule also returned a TGI in the experiment on UACC-257 melanoma of more than 100 µM.
`CC(=O)[CH-]C(=O)c1ccccc1.CC(=O)[CH-]C(=O)c1ccccc1.[Nd+3].[OH-].[OH3+]`: the GI50 in the experiment with MALME-3M melanoma, with SN12C renal, with COLO 205 colon, in the experiment on SF-539 CNS, in the experiment with OVCAR-3 ovarian and with UACC-62 melanoma was more than 100 µM throughout. Further, the GI50 with NCI-H23 lung, with A498 renal and with UACC-257 melanoma was more than 100 µM each time. Moreover, the TGI with MALME-3M melanoma, in the experiment with SN12C renal, with COLO 205 colon, in the experiment on SF-539 CNS, in the experiment on OVCAR-3 ovarian and with UACC-62 melanoma was more than 100 µM in each case. In addition, the TGI in the experiment on NCI-H23 lung, in the experiment with A498 renal and in the experiment on UACC-257 melanoma was more than 100 µM throughout.
In the case of `COc1ccc(CNc2cc(OC)cc(OC)c2)cc1`, the TGI in the experiment on MALME-3M melanoma, in the experiment on SN12C renal, in the experiment on COLO 205 colon, in the experiment on SF-539 CNS, in the experiment with OVCAR-3 ovarian and with UACC-62 melanoma was more than 100 µM each time. Besides, the TGI in the experiment with NCI-H23 lung, in the experiment on A498 renal and in the experiment on UACC-257 melanoma was more than 100 µM in each case. In addition, the GI50 in the experiment on SN12C renal is more than 70.1 µM; with SF-539 CNS, more than 90.2 µM; in the experiment on A498 renal, > 100 µM and 14.7 µM.
As to `CN(C)CCC1(C2=CCCC2)CC/C(=C\c2ccc3c(c2)OCO3)C1=O` (stereo unspecified), the TGI is 30.1 µM with MALME-3M melanoma; 28.8 µM with SN12C renal; 47.7 µM in the experiment with COLO 205 colon; 30.2 µM with SF-539 CNS; 31.6 µM with OVCAR-3 ovarian; 39.5 µM in the experiment on UACC-62 melanoma. The figures for the TGI in the experiment on NCI-H23 lung, with A498 renal and in the experiment on UACC-257 melanoma were 33 µM, 24.7 µM and 29 µM, respectively.
Consider `CC(C)(C)c1nc2c(o1)C(=Nc1ccccc1)c1ccccc1C2=O`, for which the TGI came out at 3.01 µM in the experiment with MALME-3M melanoma; 14.4 µM with SN12C renal; 63 µM in the experiment on COLO 205 colon; 8.5 µM with SF-539 CNS; 6.24 µM in the experiment on OVCAR-3 ovarian; 5.08 µM with UACC-62 melanoma. Moreover, the TGI in the experiment with NCI-H23 lung came out at 5.29 µM; in the experiment on A498 renal it was 36.4 µM; in the experiment on UACC-257 melanoma, 4.45 µM.
Regarding `CCc1nc2c(O)ccc(O)c2nc1C`, the TGI in the experiment on MALME-3M melanoma came to 29.3 µM; with SN12C renal, 29.6 µM; with COLO 205 colon, 7.26 µM; in the experiment with SF-539 CNS, 31.4 µM; in the experiment on OVCAR-3 ovarian it was 28.5 µM; in the experiment with UACC-62 melanoma it was 27.5 µM. Besides, the values for the TGI with NCI-H23 lung, with A498 renal and in the experiment on UACC-257 melanoma were 33.4 µM, 35.2 µM and 31.4 µM, respectively.
For the molecule `COC(=O)OCC1OC(N2C(=O)NC(=O)C(I)C2N=[N+]=[N-])CC1OC(=O)OC` (stereo unspecified), the TGI in the experiment with MALME-3M melanoma, with SN12C renal, with COLO 205 colon, in the experiment with SF-539 CNS, in the experiment with OVCAR-3 ovarian and in the experiment on UACC-62 melanoma was more than 100 µM throughout. In addition, the TGI in the experiment with NCI-H23 lung and in the experiment on UACC-257 melanoma was more than 100 µM throughout.
With `CN(C)CCNC(=O)c1ccc2ccc3cccnc3c2n1`, the TGI with MALME-3M melanoma is 28.7 µM; in the experiment with SN12C renal, more than 92.9 µM; in the experiment on COLO 205 colon, 23.9 µM; in the experiment on SF-539 CNS, 33.7 µM; with OVCAR-3 ovarian it was 99 µM; with UACC-62 melanoma, 30.4 µM. Further, the TGI in the experiment with NCI-H23 lung was 42.2 µM; in the experiment on A498 renal, more than 57.4 µM; in the experiment with UACC-257 melanoma, 35.4 µM.
